Measured values as given in patent US20070231919A1, “Method for detecting the effect of a toxic substance using sub-mitochondrial particle” (SAMSUNG ELECTRONICS CO., LTD., priority 2005, published 2007).

System: electron transport system of SMP (sub-mitochondrial particle)
Experiment: pH change caused by SMP after contact with the sample and addition of NADH as external electron donor
Format: biochemical
Conditions: for pH change rate: control about 0.17 per minute
Protocol: First of all, a large quantity of SMPs were prepared by sonicating mitochondria.
Thereafter, the test tubes 1 to 3 were prepared, wherein 10 ml of a 2 mM KCl solution (control solution) was added to the test tube 1, 10 ml of 10% ethanol dissolved in the control solution was added to the test tube 2, and 10 ml of 20% ethanol dissolved in the same was added to the test tube 3. SMPs prepared above were added to each test tube at a final concentration of 1.4 mg/ml.
Next, 0.1 mM of NADH that acts as an external electron donor was added to each test tube at the same time, and the pH change in each test tube was measured for 5 minutes by using a pH meter.
In order to examine whether the method of the present invention is sensitive to only a toxic substance, the experiment was carried out according to the same method as described in Example 1 except that the sample prepared by dissolving 20% sorbitol in a 2 mM KCl solution was used.

Structure (SMILES)	pH change rate (10% ethanol (FIG. 5))	pH increase for 5 minutes (10% ethanol in 2 mM KCl, SMP 1.4 mg/ml, 0.1 mM NADH, pH meter, control increased about 0.9)	pH change for 5 minutes (20% ethanol in 2 mM KCl, SMP 1.4 mg/ml, 0.1 mM NADH, pH meter)	pH change rate (20% ethanol, the relatively strong toxic substance (FIG. 5))	pH change compared with control (20% sorbitol in 2 mM KCl, SMP 1.4 mg/ml, 0.1 mM NADH, 5 minutes)
CCO [ethanol]	lower than 0.1 per minute	about 0.4	almost no pH change	lower than 0.02 per minute	
OC[C@@H](O)[C@@H](O)[C@H](O)[C@@H](O)CO [sorbitol]					almost identical to that of a control
